This note sets out measurements from patent US10525016B2, “Nutritional compositions containing an elevated level of inositol and uses thereof” (Mead Johnson Nutrition Company, priority 2015, dated 2020).

Test [1] relates to oligodendrocytes (Oligo). The test can be described thus: inositol on purified oligodendroglial cultures: Oligo number (MBP staining). The test is classed as cell-based. On the procedure: FIG. 1 illustrates the functional implications of inositol in oligodendroglia survival and proliferation. Inositol was added to purified oligodendroglial cultures and cells were analyzed for effects on proliferation, survival and differentiation by immunohistochemistry under the fluorescent microscopy. OPCs were analyzed by staining with antibody against PDGFRa and visualized in green fluorescence; and oligodendrocytes with that against MBP in red. […] Depletion of inositol in the medium results in a fifty percent loss of oligodendrocyte precursor cells and thirty percent loss in oligodendrocytes.
It may relate to the different mechanisms by which the OPCs respond to higher level of inositol and to the PDGF. Taken together, it is a novel finding that inositol at higher level promotes OPCs differentiation into mature Oligo.

Test [2] has as its system oligodendrocyte-DRG cocultures. In words: dose-response of inositol on oligodendrocyte-DRG coculture: myelin deposition and extent. The format is cell-based. The protocol: FIG. 4 illustrates the utility of dual-fluorescence labeling of OPCs in green and oligodendrocytes (Oligo) in red (left), as well as myelin deposition along the DRG neuronal fibers in red (right). It is to examine a dose-response of the inositol on oligodendrocyte-DRG coculture. Inositol was added to purified oligodendrocyte-DRG cocultures and cells were analyzed for effects on proliferation, survival differentiation and myelination. […] FIG. 5 illustrates the inositol effects on the control myelin extent in a dose-responsive manner. In the coculture system, neurofibers were included to validate the effects on myelin extent. […] Taken together, oligodendroglia rely on neuronal inositol for survival, proliferation, differentiation and the instruction of the generation of the appropriate number of […] internodes and the extent of wrapping.

The subject of test [3] is primary hippocampal neurons. In words: synaptic development in primary hippocampal neurons (Bassoon/Homer immunostaining). The test is classed as cell-based, rats. On the procedure: Primary hippocampal neurons were prepared from rats at E18. In brief, dissected hippocampi were incubated in 0.05% trypsin at 37° C. for 20 minutes and plated at a density of ˜30,000 cells per coverslip. Dissociated cells were plated on poly-L-lysine and incubated in a cell culture incubator with 5.0% CO2. Cytosine arabinoside was added at a final concentration of 2 μM per well 2 days in vitro to prevent glia cell overgrowth. For studies of inositol, neurons were either grown in inositol-free medium or in inositol-free medium supplemented with 40 μm inositol. After day 4 in vitro, neurons were grown either in inositol-free medium or in inositol-free medium supplemented with 40 μm or 200 μM inositol. At the first time of treatment at 4 days in vitro, the entire medium was exchanged for fresh medium containing nutrients, or control medium without nutrients. At the time of subsequent nutrient additions, approximately ½ of the medium was exchanged and replaced with nutrient-containing medium or control medium without nutrients. Neurons were processed for immunostaining at 14 days in vitro, i.e. after 10 days of chronic treatment. […] We determined this both by automated quantitative immunostaining for the presynaptic marker Bassoon or excitatory postsynaptic Homer, as shown in FIGS. 6 and 7 (p<0.05). […] Further, the experiment supports that the size of postsynaptic sites is larger when inositol is added, indicating more efficient synaptic transmission (p<0.05) (see, FIG. 9). Confocal imaging was performed on a Leica TCS SPE DM2500 microscope equipped with one spectral PMT. Fluorochromes imaged include Alexa 488, Alexa 555, and Alexa 647 (Invitrogen). Green fluorescence represents Bassoon presynaptic, red Homer postsynaptic, blue MAP2 dendrites. […] There was noticeable lack of growth and synapses which was visible while imaging.

Test [4] relates to oligodendrocyte precursor cells (OPCs). In words: inositol on purified oligodendroglial cultures: OPC number (PDGFRa staining). The test is classed as cell-based. On the procedure: FIG. 1 illustrates the functional implications of inositol in oligodendroglia survival and proliferation. Inositol was added to purified oligodendroglial cultures and cells were analyzed for effects on proliferation, survival and differentiation by immunohistochemistry under the fluorescent microscopy. OPCs were analyzed by staining with antibody against PDGFRa and visualized in green fluorescence; and oligodendrocytes with that against MBP in red. […] Depletion of inositol in the medium results in a fifty percent loss of oligodendrocyte precursor cells and thirty percent loss in oligodendrocytes. […] A culture condition containing 40 μM inositol in which the count of the numbers of living OPCs was normalized as 1, as a baseline control. The beginnings of culture of OPCs are equal in terms of OPC number in culture dish in all conditions. Inositol was added to each OPC culture at zero, 200 nM, 1 μM, 10 μM, 40 μM, 100 μM, and 200 μM. Since the OPCs only respond to platelet-derived growth factor PDGF, a potent mitogen, for proliferation, the condition containing 40 μM inositol and PDGF was set as a positive control. […] Such a positive effect reached about 70% of that in the positive control. […] The results are graphically illustrated in FIG. 2

The mark [5] stands for this setting: depletion of inositol in the medium.
Where [6] appears, read: increasing inositol from 40 μM to 200 μM, 14 days in vitro, p<0.05.

Regarding PDGF [reference compound], the “Oligo number vs baseline at 40 μM inositol” value in test [1] (condition containing PDGF with 40 μM inositol, p<0.05) is reported as “decreased significantly”.

As to `O[C@H]1[C@H](O)[C@@H](O)[C@H](O)[C@@H](O)[C@H]1O` [inositol], the “quantification of Oligo numbers vs baseline at 40 μM inositol” value in test [1] (absence of inositol, p<0.05) is “significantly decreased”; in test [1] (inositol 200 nM, p<0.05) it was “significantly decreased”. Besides, the loss in oligodendrocytes result in test [1] (setting [5]) is recorded as “thirty”. The “Oligo numbers vs baseline at 40 μM inositol” value in test [1] (inositol 200 μM, p<0.05) was “rise and appear a statistical significance”. The “myelin deposition along DRG neuronal fibers” value is “the amount of red labeling and appearance of myelin were inappropriate” in test [2] (absence of inositol); “myelin was wrapping around the neuronal fiber” in test [2] (baseline condition, 40 μM inositol); “more myelin has been deposited along the neuronal fibers” in test [2] (inositol 200 μM). Besides, the “myelin internodes formed (myelin extent)” value was “few myelin internodes were formed” in test [2] (absence of inositol, compared to control base medium at 40 μM); “more and longer myelin internodes” in test [2] (inositol 200 μM compared to the controls). The “health of the neurons (confocal imaging)” value in test [3] (depletion of inositol) is reported as “poor health of the neurons”. Besides, the “formation of functional synapses and overall neuron health” value in test [3] (elevated level of inositol supplement) is “significantly enhances the formation of functional synapses and overall neuron health”. Further, the “density of synaptic specializations, excitatory postsynaptic Homer” value in test [3] (setting [6]) is “substantially elevates”. For the same molecule, the “density of synaptic specializations, presynaptic marker Bassoon” value in test [3] (setting [6]) is recorded as “substantially elevates”. Besides, the “overall health of neurons (confocal imaging)” value in test [3] (inositol 40 μM) and in test [3] (inositol 200 μM) was “significantly promotes the overall health of neurons” throughout. In addition, the “density of synaptic sites where both Bassoon and Homer co-localize” value in test [3] (inositol added, p<0.05) is listed as “strong inositol effect”. The “size of postsynaptic sites” value in test [3] (inositol added, p<0.05) is listed as “larger”. In test [4] (200 μM compared to the 40 μM in the base medium), the “OPC and oligodendrocyte health” value is reported as “significantly increased”. For the same molecule, the “loss of oligodendrocyte precursor cells” value in test [4] (setting [5]) is listed as “fifty”. For the same molecule, the “quantification of OPCs vs baseline control at 40 μM inositol” value is recorded as “significantly decreased” in test [4] (inositol 200 nM, p<0.05); “significantly decreased” in test [4] (inositol 1 μM, p<0.05); “significantly decreased” in test [4] (inositol 10 μM, p<0.05); “significantly decreased” in test [4] (inositol at zero, p<0.05). Also, the “positive effect on OPCs number relative to the positive control (40 μM inositol and PDGF)” value in test [4] (inositol 200 μM) was “about 70%”. In addition, the “OPCs number vs baseline control at 40 μM inositol” value in test [4] (inositol 200 μM, p<0.05) is given as “significantly increased”. In addition, the oligodendroglial survival result in test [4] (inositol supplementation in purified oligodendroglia cultures) is “significantly promotes oligodendroglial survival”. Moreover, in test [4] (zero to 200 μM), the “overall response of OPC number to inositol” value is reported as “dose-dependent manner”.
